# Data: ChEMBL document CHEMBL1275493, “Anti-human immunodeficiency virus type 1 activities of antimicrobial peptides derived from human and bovine cathelicidins” (Antimicrob Agents Chemother, 2008)
# Peptide text beside a SMILES is read from it.
# Tests used:
# [1] = Therapeutic index, TC50 for Human immunodeficiency virus 1 3B infected human CEM-SS cells to EC50 for immunodeficiency virus 1 3B; assay type: cell-based; details: CEM-SS cells infected with HIV-1 3B, read-out: TI
# [2] = system: Human immunodeficiency virus 1; experiment: Antiviral activity against Human immunodeficiency virus 1 3B infected in CEM-SS cells; assay type: functional, organism-based
# CEM-SS = experiment: Cytotoxicity against Human immunodeficiency virus 1 3B infected human CEM-SS cells; assay type: functional; details: read-out: TC50 (the source's name)
Structure (SMILES),selectivity ratio [1],EC50 [2] [µM],CC50 (CEM-SS) [µM]
CC[C@H](C)[C@H](NC(=O)[C@H](CCCNC(=N)N)NC(=O)[C@H](CCC(N)=O)NC(=O)[C@@H](NC(=O)[C@@H](NC(=O)[C@H](CCCNC(=N)N)NC(=O)[C@H](CCCCN)NC(=O)[C@@H](N)Cc1ccccc1)[C@@H](C)CC)C(C)C)C(=O)N[C@@H](CCCCN)C(=O)N[C@@H](CC(=O)O)C(=O)N[C@@H](Cc1ccccc1)C(=O)N[C@@H](CC(C)C)C(=O)N[C@@H](CCCNC(=N)N)C(=O)O (H-FKRIVQRIKDFLR-OH),3.1,3.4,10.4
CC[C@H](C)[C@H](NC(=O)CN)C(=O)N[C@@H](CCCCN)C(=O)N[C@@H](CCC(=O)O)C(=O)N[C@@H](Cc1ccccc1)C(=O)N[C@@H](CCCCN)C(=O)N[C@@H](CCCNC(=N)N)C(=O)N[C@H](C(=O)N[C@H](C(=O)N[C@@H](CCC(N)=O)C(=O)N[C@@H](CCCNC(=N)N)C(=O)N[C@H](C(=O)N[C@@H](CCCCN)C(=O)N[C@@H](CC(=O)O)C(=O)N[C@@H](Cc1ccccc1)C(=O)N[C@@H](CC(C)C)C(=O)N[C@@H](CCCNC(=N)N)C(=O)N[C@@H](CC(N)=O)C(=O)N[C@@H](CC(C)C)C(=O)N[C@H](C(=O)O)C(C)C)[C@@H](C)CC)C(C)C)[C@@H](C)CC (H-GIKEFKRIVQRIKDFLRNLV-OH),21,1.08,22.7
CC[C@H](C)[C@H](NC(=O)[C@H](CCCCN)NC(=O)[C@H](CCCCN)NC(=O)[C@H](Cc1ccccc1)NC(=O)[C@H](CC(C)C)NC(=O)[C@H](CCCCN)NC(=O)[C@H](CCCCN)NC(=O)[C@H](Cc1ccccc1)NC(=O)[C@@H]1CCCN1C(=O)[C@H](CCCCN)NC(=O)[C@H](CCCNC(=N)N)NC(=O)[C@H](Cc1ccccc1)NC(=O)[C@H](CCCNC(=N)N)NC(=O)[C@H](CCCCN)NC(=O)[C@H](Cc1ccccc1)NC(=O)[C@H](CCCNC(=N)N)NC(=O)CN)C(=O)N[C@@H](CO)C(=O)O (H-GRFKRFRKPFKKLFKKIS-OH),5.9,3.2,18.9
CC[C@H](C)[C@H](NC(=O)[C@H](CCCCN)NC(=O)[C@H](CCCCN)NC(=O)[C@H](Cc1ccccc1)NC(=O)[C@H](CC(C)C)NC(=O)[C@H](CCCCN)NC(=O)[C@H](CCCCN)NC(=O)[C@H](Cc1ccccc1)NC(=O)[C@H](CCCCN)NC(=O)[C@H](CCCCN)NC(=O)[C@H](CCCNC(=N)N)NC(=O)[C@H](Cc1ccccc1)NC(=O)[C@H](CCCNC(=N)N)NC(=O)[C@H](CCCCN)NC(=O)[C@H](Cc1ccccc1)NC(=O)[C@H](CCCNC(=N)N)NC(=O)CN)C(=O)N[C@@H](CO)C(=O)O (H-GRFKRFRKKFKKLFKKIS-OH),24.1,0.35,8.45
CC[C@H](C)[C@H](NC(=O)[C@H](CCCNC(=N)N)NC(=O)[C@H](CCCCN)NC(=O)[C@H](Cc1ccccc1)NC(=O)CN)C(=O)N[C@H](C(=O)N[C@@H](CCC(N)=O)C(=O)N[C@@H](CCCNC(=N)N)C(=O)N[C@@H](C(=O)N[C@@H](CCCCN)C(=O)N[C@@H](CC(=O)O)C(=O)N[C@@H](Cc1ccccc1)C(=O)N[C@H](CC(C)C)C(=O)N[C@@H](CCCNC(=N)N)C(=O)N[C@@H](CC(N)=O)C(=O)N[C@@H](CC(C)C)C(=O)N[C@H](C(=O)O)C(C)C)[C@@H](C)CC)C(C)C,,> 47.5,> 47.5
CC[C@H](C)[C@H](NC(=O)[C@H](CCCCN)NC(=O)[C@H](CCC(=O)O)NC(=O)[C@H](CCCCN)NC(=O)[C@H](CO)NC(=O)[C@H](CCCCN)NC(=O)[C@H](CCCNC(=N)N)NC(=O)[C@H](CC(C)C)NC(=O)[C@H](CC(C)C)NC(=O)[C@H](CC(=O)O)NC(=O)CNC(=O)[C@H](CC(C)C)NC(=O)[C@@H](N)CC(C)C)C(=O)NCC(=O)N[C@@H](CCCCN)C(=O)N[C@@H](CCC(=O)O)C(=O)N[C@@H](Cc1ccccc1)C(=O)N[C@@H](CCCCN)C(=O)N[C@@H](CCCNC(=N)N)C(=O)N[C@H](C(=O)N[C@H](C(=O)N[C@@H](CCC(N)=O)C(=O)N[C@@H](CCCNC(=N)N)C(=O)O)C(C)C)[C@@H](C)CC (H-LLGDLLRKSKEKIGKEFKRIVQR-OH),,> 35.4,> 35.4
CC[C@H](C)[C@H](NC(=O)[C@H](CCCCN)NC(=O)[C@H](CCCCN)NC(=O)[C@H](Cc1ccccc1)NC(=O)[C@H](CC(C)C)NC(=O)[C@H](CCCCN)NC(=O)[C@H](CCCCN)NC(=O)[C@H](NC(=O)[C@H](CCCCN)NC(=O)[C@H](CCCCN)NC(=O)[C@H](CCCNC(=N)N)NC(=O)[C@H](NC(=O)[C@H](CCCNC(=N)N)NC(=O)[C@H](CCCCN)NC(=O)[C@H](Cc1ccccc1)NC(=O)[C@H](CCCNC(=N)N)NC(=O)CN)c1ccccc1)c1ccccc1)C(=O)N[C@@H](CO)C(=O)O,15,0.68,10.2
CC[C@H](C)[C@H](NC(=O)[C@H](CCCNC(=N)N)NC(=O)[C@H](CCCCN)NC(=O)[C@H](Cc1ccccc1)NC(=O)CN)C(=O)N[C@H](C(=O)N[C@@H](CCC(N)=O)C(=O)N[C@@H](CCCNC(=N)N)C(=O)N[C@@H](C(=O)N[C@@H](CCCCN)C(=O)N[C@@H](CC(=O)O)C(=O)N[C@@H](Cc1ccccc1)C(=O)N[C@@H](CC(C)C)C(=O)N[C@@H](CCCNC(=N)N)C(=O)N[C@@H](CC(N)=O)C(=O)N[C@@H](CC(C)C)C(=O)N[C@H](C(=O)O)C(C)C)[C@@H](C)CC)C(C)C,,> 47.5,22.7
CC[C@H](C)[C@H](NC(=O)[C@H](CCCNC(=N)N)NC(=O)[C@H](CCC(N)=O)NC(=O)[C@@H](NC(=O)[C@@H](NC(=O)[C@H](CCCNC(=N)N)NC(=O)[C@@H](N)CCCCN)[C@@H](C)CC)C(C)C)C(=O)N[C@@H](CCCCN)C(=O)N[C@@H](CC(=O)O)C(=O)N[C@@H](Cc1ccccc1)C(=O)N[C@@H](CC(C)C)C(=O)N[C@@H](CCCNC(=N)N)C(=O)O (H-KRIVQRIKDFLR-OH),,> 63.5,> 63.5
CC[C@H](C)[C@H](NC(=O)CN)C(=O)N[C@@H](CCCCN)C(=O)N[C@@H](CCC(=O)O)C(=O)N[C@@H](C(=O)N[C@@H](CCCCN)C(=O)N[C@@H](CCCNC(=N)N)C(=O)N[C@H](C(=O)N[C@H](C(=O)N[C@@H](CCC(N)=O)C(=O)N[C@@H](CCCNC(=N)N)C(=O)N[C@H](C(=O)N[C@@H](CCCCN)C(=O)N[C@@H](CC(=O)O)C(=O)N[C@@H](Cc1ccccc1)C(=O)N[C@@H](CC(C)C)C(=O)N[C@@H](CCCNC(=N)N)C(=O)N[C@@H](CC(N)=O)C(=O)N[C@@H](CC(C)C)C(=O)N[C@H](C(=O)O)C(C)C)[C@@H](C)CC)C(C)C)[C@@H](C)CC)c1ccccc1,,> 40.6,7.3
CC(C)C[C@H](NC(=O)[C@H](CCCCN)NC(=O)[C@H](CCCCN)NC(=O)[C@H](Cc1ccccc1)NC(=O)[C@H](CCCCN)NC(=O)[C@H](CCCCN)NC(=O)[C@H](CCCNC(=N)N)NC(=O)[C@H](Cc1ccccc1)NC(=O)[C@H](CCCNC(=N)N)NC(=O)[C@H](CCCCN)NC(=O)[C@H](Cc1ccccc1)NC(=O)[C@H](CCCNC(=N)N)NC(=O)CN)C(=O)N[C@@H](Cc1ccccc1)C(=O)N[C@@H](CCCCN)C(=O)O (H-GRFKRFRKKFKKLFK-OH),,> 49.6,> 49.6
CC[C@H](C)[C@H](NC(=O)CN)C(=O)N[C@@H](CCCCN)C(=O)N[C@@H](CCC(N)=O)C(=O)N[C@@H](Cc1ccccc1)C(=O)N[C@@H](CCCCN)C(=O)N[C@@H](CCCNC(=N)N)C(=O)N[C@H](C(=O)N[C@H](C(=O)N[C@@H](CCC(N)=O)C(=O)N[C@@H](CCCNC(=N)N)C(=O)N[C@H](C(=O)N[C@@H](CCCCN)C(=O)N[C@@H](CC(=O)O)C(=O)N[C@@H](Cc1ccccc1)C(=O)N[C@@H](CC(C)C)C(=O)N[C@@H](CCCNC(=N)N)C(=O)N[C@@H](CC(N)=O)C(=O)N[C@@H](CC(C)C)C(=O)N[C@H](C(=O)O)C(C)C)[C@@H](C)CC)C(C)C)[C@@H](C)CC (H-GIKQFKRIVQRIKDFLRNLV-OH),15.1,0.91,
CC[C@H](C)[C@H](NC(=O)[C@H](CCCCN)NC(=O)[C@H](CC(=O)O)NC(=O)[C@H](Cc1ccccc1)NC(=O)[C@H](CC(C)C)NC(=O)[C@@H](N)CCCNC(=N)N)C(=O)N[C@@H](CCCNC(=N)N)C(=O)N[C@@H](CCC(N)=O)C(=O)N[C@H](C(=O)N[C@H](C(=O)N[C@@H](CCCNC(=N)N)C(=O)N[C@@H](CCCCN)C(=O)N[C@@H](Cc1ccccc1)C(=O)O)[C@@H](C)CC)C(C)C (H-RLFDKIRQVIRKF-OH),,> 58.1,33.7
CC[C@H](C)[C@H](NC(=O)CN)C(=O)N[C@@H](CCCCN)C(=O)N[C@@H](CCC(=O)O)C(=O)N[C@@H](Cc1ccccc1)C(=O)N[C@@H](CCCCN)C(=O)N[C@@H](CCCNC(=N)N)C(=O)N[C@@H](CCC(=O)O)C(=O)N[C@@H](Cc1ccccc1)C(=O)N[C@@H](CCC(N)=O)C(=O)N[C@@H](CCCNC(=N)N)C(=O)N[C@H](C(=O)N[C@@H](CCCCN)C(=O)N[C@@H](CC(=O)O)C(=O)N[C@@H](Cc1ccccc1)C(=O)N[C@@H](CC(C)C)C(=O)N[C@@H](CCCNC(=N)N)C(=O)N[C@@H](CC(N)=O)C(=O)N[C@@H](CC(C)C)C(=O)N[C@H](C(=O)O)C(C)C)[C@@H](C)CC (H-GIKEFKREFQRIKDFLRNLV-OH),6.2,1.6,
CC[C@H](C)[C@H](NC(=O)CN)C(=O)N[C@@H](CCCCN)C(=O)N[C@@H](CCC(=O)O)C(=O)N[C@@H](Cc1c[nH]c2ccccc12)C(=O)N[C@@H](CCCCN)C(=O)N[C@@H](CCCNC(=N)N)C(=O)N[C@H](C(=O)N[C@H](C(=O)N[C@@H](CCC(N)=O)C(=O)N[C@@H](CCCNC(=N)N)C(=O)N[C@H](C(=O)N[C@@H](CCCCN)C(=O)N[C@@H](CC(=O)O)C(=O)N[C@@H](Cc1ccccc1)C(=O)N[C@@H](CC(C)C)C(=O)N[C@@H](CCCNC(=N)N)C(=O)N[C@@H](CC(N)=O)C(=O)N[C@@H](CC(C)C)C(=O)N[C@H](C(=O)O)C(C)C)[C@@H](C)CC)C(C)C)[C@@H](C)CC (H-GIKEWKRIVQRIKDFLRNLV-OH),3.2,7.4,
